Source: patent publication US20250120932A1, “PHARMACEUTICAL COMPOSITION” (NEUROPRO THERAPEUTICS, INC., priority 2021, published 2025)

Test: Pharmacokinetic study in cynomolgus monkeys after oral (nasogastric) gavage, sublingual and intravenous administration
Format: in vivo
Conditions: cynomolgus monkey, plasma, Plasma Bumetanide Dibenzylamide concentration, monkey; for concentration at 0.5 h: 0.50 h
Protocol: A pharmacokinetic study was done in cynomolgus monkeys following single oral (nasogastric) gavage, sublingual, and intravenous administration. […] Calibration curves, blanks, and analytical QCs were prepared in monkey plasma (K2EDTA). The extracts were evaporated to dryness, reconstituted, and then analyzed by LC-MS/MS. The calibration range was 0.250-250 ng/mL for both analytes.
If the criteria for either the calibration curve or the analytical QCs were not met, the analytical run was rejected. […] No deviations were found during the bioanalytical phase of the study conducted by Origin. Calibration curves were derived from the individual analyte to internal standard peak area ratios using the least squared regression of the ratio versus the nominal concentration of the calibration standard, prepared in duplicate. The regression was then used to back-calculate the concentration of each calibration standard, QC sample and study sample. […] Analyst® Software Version 1.6.3 (Applied Biosystems-MDS Sciex), operated with Windows® (Microsoft), was used for instrument control, data acquisition, and peak integrations. Peak area ratios, standard curve regressions, and sample concentration/accuracy values were calculated with Analyst® Software Version 1.6.3. Other results (e.g., mean statistics) were calculated with Excel® (Microsoft).
There was no apparent sex difference for the second formulation. […] A fourth formulation comprising the composition B listed in Table 54 was also administered in monheys.

[1] = both sexes, oral, 30 mg/kg, Mean, NG 30 mg/kg, First Formulation (Form 1), N=4
[2] = both sexes, oral, 30 mg/kg, Mean, NG 30 mg/kg, Second Formulation (Form 3), N=4
[3] = both sexes, oral, 30 mg/kg, Median, NG 30 mg/kg, First Formulation (Form 1), N=4
[4] = both sexes, oral, 30 mg/kg, Median, NG 30 mg/kg, Second Formulation (Form 3), N=4
[5] = intravenous, 2 mg/kg, Mean, dose column 2 mg/kg (title 30 mg/kg), Third Formulation (Form 4), N=4
[6] = intravenous, 2 mg/kg, dose column 2 mg/kg (title 30 mg/kg), Third Formulation (Form 4), individual animals
[7] = other: sublingual, 5 mg/kg, Mean, SL, dose column 5 mg/kg (title 30 mg/kg), Fourth Formulation (Form 2), N=4
[8] = other: sublingual, 5 mg/kg, Median, SL, dose column 5 mg/kg (title 30 mg/kg), Fourth Formulation (Form 2), N=4

- concentration at 0 h [1]: 0 ng/mL
- concentration at 0.25 h [1]: 4.31 ng/mL
- concentration at 0.5 h [1]: 5.9 ng/mL
- concentration at 1 h (both sexes, oral, 30 mg/kg, Mean, NG 30 mg/kg, First Formulation (Form 1), 1.00 h, N=4): 13.2 ng/mL
- concentration at 2 h (both sexes, oral, 30 mg/kg, Mean, NG 30 mg/kg, First Formulation (Form 1), 2.00 h, N=4): 62.6 ng/mL
- concentration at 4 h (both sexes, oral, 30 mg/kg, Mean, NG 30 mg/kg, First Formulation (Form 1), 4.00 h, N=4): 66.8 ng/mL
- concentration at 8 h (both sexes, oral, 30 mg/kg, Mean, NG 30 mg/kg, First Formulation (Form 1), 8.00 h, N=4): 44.9 ng/mL
- concentration at 24 h (both sexes, oral, 30 mg/kg, Mean, NG 30 mg/kg, First Formulation (Form 1), 24.00 h, N=4): 8.59 ng/mL
- concentration at 32 h (both sexes, oral, 30 mg/kg, Mean, NG 30 mg/kg, First Formulation (Form 1), 32.00 h, N=4): 4.51 ng/mL
- concentration at 0 h [2]: 0 ng/mL
- concentration at 0.25 h [2]: 0.283 ng/mL
- concentration at 0.5 h [2]: 2.85 ng/mL
- concentration at 1 h (both sexes, oral, 30 mg/kg, Mean, NG 30 mg/kg, Second Formulation (Form 3), 1.00 h, N=4): 11.5 ng/mL
- concentration at 2 h (both sexes, oral, 30 mg/kg, Mean, NG 30 mg/kg, Second Formulation (Form 3), 2.00 h, N=4): 54.1 ng/mL
- concentration at 4 h (both sexes, oral, 30 mg/kg, Mean, NG 30 mg/kg, Second Formulation (Form 3), 4.00 h, N=4): 231 ng/mL
- concentration at 8 h (both sexes, oral, 30 mg/kg, Mean, NG 30 mg/kg, Second Formulation (Form 3), 8.00 h, N=4): 590 ng/mL
- concentration at 24 h (both sexes, oral, 30 mg/kg, Mean, NG 30 mg/kg, Second Formulation (Form 3), 24.00 h, N=4): 13.6 ng/mL
- concentration at 32 h (both sexes, oral, 30 mg/kg, Mean, NG 30 mg/kg, Second Formulation (Form 3), 32.00 h, N=4): 2.94 ng/mL
- concentration at 0 h [3]: 0 ng/mL
- concentration at 0.25 h [3]: 0.962 ng/mL
- concentration at 0.5 h [3]: 2.82 ng/mL
- concentration at 1 h (both sexes, oral, 30 mg/kg, Median, NG 30 mg/kg, First Formulation (Form 1), 1.00 h, N=4): 10.1 ng/mL
- concentration at 2 h (both sexes, oral, 30 mg/kg, Median, NG 30 mg/kg, First Formulation (Form 1), 2.00 h, N=4): 42.6 ng/mL
- concentration at 4 h (both sexes, oral, 30 mg/kg, Median, NG 30 mg/kg, First Formulation (Form 1), 4.00 h, N=4): 37.6 ng/mL
- concentration at 8 h (both sexes, oral, 30 mg/kg, Median, NG 30 mg/kg, First Formulation (Form 1), 8.00 h, N=4): 31.3 ng/mL
- concentration at 24 h (both sexes, oral, 30 mg/kg, Median, NG 30 mg/kg, First Formulation (Form 1), 24.00 h, N=4): 5.38 ng/mL
- concentration at 32 h (both sexes, oral, 30 mg/kg, Median, NG 30 mg/kg, First Formulation (Form 1), 32.00 h, N=4): 3.75 ng/mL
- concentration at 0 h [4]: 0 ng/mL
- concentration at 0.25 h [4]: 0.256 ng/mL
- concentration at 0.5 h [4]: 2.44 ng/mL
- concentration at 1 h (both sexes, oral, 30 mg/kg, Median, NG 30 mg/kg, Second Formulation (Form 3), 1.00 h, N=4): 9.43 ng/mL
- concentration at 2 h (both sexes, oral, 30 mg/kg, Median, NG 30 mg/kg, Second Formulation (Form 3), 2.00 h, N=4): 58.6 ng/mL
- concentration at 4 h (both sexes, oral, 30 mg/kg, Median, NG 30 mg/kg, Second Formulation (Form 3), 4.00 h, N=4): 194 ng/mL
- concentration at 8 h (both sexes, oral, 30 mg/kg, Median, NG 30 mg/kg, Second Formulation (Form 3), 8.00 h, N=4): 566 ng/mL
- concentration at 24 h (both sexes, oral, 30 mg/kg, Median, NG 30 mg/kg, Second Formulation (Form 3), 24.00 h, N=4): 10 ng/mL
- concentration at 32 h (both sexes, oral, 30 mg/kg, Median, NG 30 mg/kg, Second Formulation (Form 3), 32.00 h, N=4): 1.86 ng/mL
- concentration at 0 h (both sexes, oral, 30 mg/kg, NG 30 mg/kg, First Formulation (Form 1), individual animals): 0 ng/mL
- concentration at 0 h (both sexes, oral, 30 mg/kg, NG 30 mg/kg, Second Formulation (Form 3), individual animals): 0 ng/mL
- concentration at 8 h (both sexes, oral, 30 mg/kg, NG 30 mg/kg, Second Formulation (Form 3), 8.00 h, individual animals): 442 ng/mL
- concentration at 0.08 h [5]: 1440 ng/mL
- concentration at 0.5 h [5]: 664 ng/mL
- concentration at 1 h (intravenous, 2 mg/kg, Mean, dose column 2 mg/kg (title 30 mg/kg), Third Formulation (Form 4), 1.00 h, N=4): 483 ng/mL
- concentration at 2 h (intravenous, 2 mg/kg, Mean, dose column 2 mg/kg (title 30 mg/kg), Third Formulation (Form 4), 2.00 h, N=4): 285 ng/mL
- concentration at 4 h (intravenous, 2 mg/kg, Mean, dose column 2 mg/kg (title 30 mg/kg), Third Formulation (Form 4), 4.00 h, N=4): 114 ng/mL
- concentration at 8 h (intravenous, 2 mg/kg, Mean, dose column 2 mg/kg (title 30 mg/kg), Third Formulation (Form 4), 8.00 h, N=4): 30.7 ng/mL
- concentration at 24 h (intravenous, 2 mg/kg, Mean, dose column 2 mg/kg (title 30 mg/kg), Third Formulation (Form 4), 24.00 h, N=4): 3.57 ng/mL
- concentration at 32 h (intravenous, 2 mg/kg, Mean, dose column 2 mg/kg (title 30 mg/kg), Third Formulation (Form 4), 32.00 h, N=4): 1.48 ng/mL
- concentration at 0.08 h [6]: 1860 ng/mL
- concentration at 0.5 h [6]: 717 ng/mL
- concentration at 1 h (intravenous, 2 mg/kg, dose column 2 mg/kg (title 30 mg/kg), Third Formulation (Form 4), 1.00 h, individual animals): 538 ng/mL
- concentration at 2 h (intravenous, 2 mg/kg, dose column 2 mg/kg (title 30 mg/kg), Third Formulation (Form 4), 2.00 h, individual animals): 332 ng/mL
- concentration at 4 h (intravenous, 2 mg/kg, dose column 2 mg/kg (title 30 mg/kg), Third Formulation (Form 4), 4.00 h, individual animals): 149 ng/mL
- concentration at 0 h [7]: 0 ng/mL
- concentration at 0.25 h [7]: 0 ng/mL
- concentration at 0.5 h [7]: 0 ng/mL
- concentration at 1 h (other: sublingual, 5 mg/kg, Mean, SL, dose column 5 mg/kg (title 30 mg/kg), Fourth Formulation (Form 2), 1.0 h, N=4): 0 ng/mL
- concentration at 2 h (other: sublingual, 5 mg/kg, Mean, SL, dose column 5 mg/kg (title 30 mg/kg), Fourth Formulation (Form 2), 2.0 h, N=4): 0.155 ng/mL
- concentration at 4 h (other: sublingual, 5 mg/kg, Mean, SL, dose column 5 mg/kg (title 30 mg/kg), Fourth Formulation (Form 2), 4.0 h, N=4): 0.114 ng/mL
- concentration at 8 h (other: sublingual, 5 mg/kg, Mean, SL, dose column 5 mg/kg (title 30 mg/kg), Fourth Formulation (Form 2), 8.0 h, N=4): 0.41 ng/mL
- concentration at 24 h (other: sublingual, 5 mg/kg, Mean, SL, dose column 5 mg/kg (title 30 mg/kg), Fourth Formulation (Form 2), 24.0 h, N=4): 0.248 ng/mL
- concentration at 32 h (other: sublingual, 5 mg/kg, Mean, SL, dose column 5 mg/kg (title 30 mg/kg), Fourth Formulation (Form 2), 32.0 h, N=4): 0.0803 ng/mL
- concentration at 0 h [8]: 0 ng/mL
- concentration at 0.25 h [8]: 0 ng/mL
- concentration at 0.5 h [8]: 0 ng/mL
- concentration at 1 h (other: sublingual, 5 mg/kg, Median, SL, dose column 5 mg/kg (title 30 mg/kg), Fourth Formulation (Form 2), 1.0 h, N=4): 0 ng/mL
Structure (SMILES): CCCCNc1cc(C(=O)N(Cc2ccccc2)Cc2ccccc2)cc(S(N)(=O)=O)c1Oc1ccccc1 [Bumetanide Dibenzylamide, N, N-dibenzyl 3-aminosulfonyl-5-butylamino-4-phenoxybenzamide]
